Data set [1] deals with NO production by LPS stimulated in RAW264.7 cells. Kind of data set: Inhibition of NO production in LPS-stimulated RAW264.7 macrophages (Griess reagent). It is filed as cell-based, mouse. The following applies: LPS-stimulated RAW264.7 cells; for IC50: Mus musculus, read-out: IC50 (inhibition of nitric oxide production). How it is done: (§1) RAW264.7 the mouse macrophages cell line (Bioresource Collection and Research Center (BCRC) Number: 60001) was obtained from Food Industry Research and Development Institute (Hsinchu, Taiwan). All of the cell lines were cultured in DMEM containing 10% (v:v) fetal bovine serum (FBS), penicillin and streptomycin (100 U/mL), 4 mM L-glutamine (100 U/mL). The cells were cultured in a humidified incubator under 5% CO2 at 37 °C. The RAW264.7 cells (5 × 10^5 cells per mL) were seeded into plates for 24 h before treatment.
(§2) The in-vitro cell viability activity of MeOH extracts, partition fractions and pure compounds were determined by the MTT assay. RAW264.7 cells (5 × 10^4/well) were seeded in 96-well plates and incubated for 24 h. The cells were treated with MeOH extracts and contain partition fractions in various concentrations (0, 62.5, 125, 250, 500 and 1000 μg/mL), compounds and positive control (0, 6.25, 12.5, 25, 50 and 100 μg/mL) in the presence or absence of LPS (100 ng/mL) for 24 h. After 24 h, the medium was replaced with a medium containing 0.5 mg/mL MTT solution and incubated at 37 °C for 4 h. After the end of the MTT reaction, we used 0.04 N HCl /isopropanol solution to dissolve the formazan crystals. The absorbance was measured at 570 nm using a microplate reader (Molecular Devices, LLC.). The cell viability was calculated and compared with the control group.
The supernatant collected from cell culture and mixed with an equal volume of Griess reagent (1% sulphanilamide, 0.1% naphthylethylenediamine dihydrochloride and 5% phosphoric acid) and the absorbance value was measured at 540 nm using an ELISA plate reader.
The IC50 values for NO production were presented as mean values ± SD (standard deviations) of at least three independent experiments. The statistical significance of the differences was evaluated using Student’s t-test using IBM SPSS v.20.0 (SPSS Inc., Chicago, IL, USA). The percentage of NO production and cell viability were compared using variance analysis with GraphPad Prism 7.0 (GraphPad Software Inc., San Diego, CA, USA).
A general note: Nitrite, measured by Griess reagent, commonly stands in for NO production.

Data set [2] is described as follows: Cell viability assay (MTT) in RAW264.7 cells. It is filed as cell-based. The following applies: mouse, RAW264.7 macrophage cells, 6.25-100 μg/mL, LPS 100 ng/mL, mean ± SD of three independent experiments. The protocol:
as §1, §2

Setting [3] is: pure compounds, 6.25-100 μg/mL, 24 h, mean ± SD of three independent experiments.

The term IC50 denotes the point on the concentration scale where inhibition reaches its midpoint. In general, CC50 refers to the concentration at which the toxic effect on the cells reaches its halfway point. Read a low CC50 as harm at low concentration.

Values after ≈ are worked out from the molar mass of the structure shown.

`COC(=O)C1=COC(O)C2C1CC(OC1OC(=O)C3C(C)C(O)CC3C1C(=O)OC)C2C` (stereo not drawn) [Compound 3, reticunin A]: the IC50 in data set [1] (setting [3]) is over 100 µg/mL. In data set [2], this molecule registered a CC50 at 24 h of over 100 µg/mL.

`O=C(O)c1ccc(O)c(O)c1` [Compound 14, protocatechuic acid]: the IC50 in data set [1] (setting [3]) came to 72.9 ± 4.97 µg/mL (≈ 473 µM). In data set [2], the CC50 at 24 h is over 100 µg/mL.

Regarding `COc1cc(C(=O)CCO)cc(OC)c1O` [Compound 17, 3-hydroxy-1-(4-hydroxy 3,5-dimethoxyphenyl)-1-propanone], in data set [1] (setting [3]), the IC50 is over 100 µg/mL. In data set [2], this molecule came in with a CC50 at 24 h of over 100 µg/mL.

Turning to `COc1ccc(O)c(O)c1` [Compound 13, 4-methoxycatechol], in data set [1] (setting [3]), the IC50 is over 100 µg/mL. In data set [2], this molecule had a CC50 at 24 h of over 100 µg/mL.

In the case of `COC(=O)c1ccc(O)c(O)c1` [Compound 19, protocatechuic acid methyl ester], the IC50 in data set [1] (setting [3]) was over 100 µg/mL. For the same molecule, in data set [2], the CC50 at 24 h was over 100 µg/mL.

In the case of `COc1cc([C@H]2OC[C@H]3[C@@H]2CO[C@@H]3c2cc(OC)c(O)c(OC)c2)cc(OC)c1O` [Compound 10, syringaresinol], the IC50 in data set [1] (setting [3]) came to 9.18 ± 1.9 µg/mL (≈ 21.9 µM). Further, in data set [1] (NO inhibition), the “IC50 fold less than indomethacin (positive control)” value was 5 fold. This molecule displayed a CC50 at 24 h in data set [2] of over 100 µg/mL.

Take `COC(=O)C1=CNC(=O)[C@@H]2[C@@H](C)[C@@H](O)C[C@H]12` [Compound 5, strychnovoline]: the IC50 in data set [1] (setting [3]) was over 100 µg/mL. In data set [2], this molecule displayed a CC50 at 24 h of over 100 µg/mL.

Take `C[C@@H]1[C@H]2COC(=O)C[C@H]2C[C@@H]1O` [Compound 7, isoboonein]: the IC50 in data set [1] (setting [3]) came out at 86.3 ± 3.45 µg/mL (≈ 507 µM). The CC50 at 24 h in data set [2] is over 100 µg/mL.

As to `COc1cc(C(=O)C(O)CO)ccc1O` (stereo not drawn) [Compound 20, C-veratroylglycol], in data set [1] (setting [3]), the IC50 was over 100 µg/mL. This molecule gave a CC50 at 24 h in data set [2] of over 100 µg/mL.

For the molecule `COc1cc(C(=O)O)cc(OC)c1O` [Compound 16, syringic acid], the IC50 in data set [1] (setting [3]) was over 100 µg/mL. This molecule also displayed a CC50 at 24 h in data set [2] of over 100 µg/mL.

For the molecule `COC(=O)C1COC(=O)C2C(C)C(OC3OC(=O)C4C(C)C(O)CC4C3C(=O)OC)CC12` (stereo not drawn) [Compound 4, reticunin B], the IC50 in data set [1] (setting [3]) is over 100 µg/mL. In data set [2], this molecule showed a CC50 at 24 h of over 100 µg/mL.

On to `COC(=O)C1=COC[C@@H]2[C@@H](C)[C@@H](O)C[C@H]12` [Compound 6, siphonostegiol], for which, in data set [1] (setting [3]), the half-inhibitory concentration (IC50) is over 100 µg/mL. The same molecule gave a CC50 at 24 h in data set [2] of over 100 µg/mL.

As for (+)-pinoresinol [Compound 11], the “IC50 (inhibition of nitric oxide production)” value in data set [1] (setting [3]) was over 100 µg/mL.

For `C/C=C1/C(=O)OCC[C@H]1CCO` [Compound 8, floribundane B], in data set [1] (setting [3]), the IC50 was over 100 µg/mL. The molecule further gave a CC50 at 24 h in data set [2] of over 100 µg/mL.

For the molecule `COc1cc([C@@H]2OC[C@@H]3[C@H]2CO[C@H]3c2cc(OC)c(O)c(OC)c2)ccc1O` [Compound 12, (+)-medioresinol], in data set [1] (setting [3]), the IC50 turned out to be 76.2 ± 2.42 µg/mL (≈ 196 µM). For the same molecule, the CC50 at 24 h in data set [2] was over 100 µg/mL.

On to `C[C@@H]1[C@H]2COC(=O)[C@@H](CO)[C@H]2C[C@@H]1O` [Compound 9, alyxialactone], for which the 50% inhibitory concentration (IC50) in data set [1] (setting [3]) was over 100 µg/mL. In addition, the cytotoxic concentration (CC50) at 24 h in data set [2] was over 100 µg/mL.

In the case of `COC(=O)C(CO)C1CC(O)C(C)C1COC(=O)c1ccccc1` (stereo not drawn) [Compound 2, neonanin D], in data set [1] (setting [3]), the IC50 is over 100 µg/mL. The same molecule registered a CC50 at 24 h in data set [2] of over 100 µg/mL.

As for `COc1cc(/C=C/C(=O)O)ccc1O` [Compound 18, ferulic acid], in data set [1] (setting [3]), the IC50 was over 100 µg/mL. In addition, in data set [2], the CC50 at 24 h was over 100 µg/mL.

For `COC(=O)C1C(O)OC(=O)C2C(C)C(O)CC12` (stereo not drawn) [Compound 1, neonanin C], the IC50 in data set [1] (setting [3]) was over 100 µg/mL. In addition, the cytotoxic concentration (CC50) at 24 h in data set [2] is over 100 µg/mL.

With `COc1ccc2c(c1)c(CC(=O)O)c(C)n2C(=O)c1ccc(Cl)cc1` [Indomethacin, indomethacin, reference compound], the IC50 in data set [1] (setting [3]) came to 46.7 ± 3.14 µg/mL (≈ 131 µM). The same molecule gave a CC50 at 24 h in data set [2] of over 100 µg/mL.

Regarding `O=C(O)/C=C/c1ccc(O)c(O)c1` [Compound 15, trans-caffeic acid], the IC50 in data set [1] (setting [3]) was determined as 95.2 ± 1.2 µg/mL (≈ 528 µM). Besides, in data set [2], the CC50 at 24 h was over 100 µg/mL.

(Values after PMC6930649, “Four New Iridoid Metabolites Have Been Isolated from the Stems of Neonauclea reticulata (Havil.) Merr. with Anti-Inflammatory Activities on LPS-Induced RAW264.7 Cells” (Molecules, 2019).)
